# Measurements: ChEMBL document CHEMBL5352439, “Design, synthesis, biological evaluation and molecular docking study of novel urea-based benzamide derivatives as potent poly(ADP-ribose) polymerase-1 (PARP-1) inhibitors” (Eur J Med Chem, 2022)
# Key:
# HCT-116 [1] = assay: Inhibition of cell migration in human HCT-116 cells at 7.5 uM incubated for 24 hrs by wound healing assay (reference value: 32.0 %); format: functional
# HCT-116 [2] = assay: Induction of cell cycle arrest in human HCT-116 cells assessed as accumulation of cells at G2/M phase at 7.5 to 10 uM incubated for 48 hrs by propidium iodide staining based flow cytometry analysis (reference value: 27.84 %); format: functional; settings: dose 7.5-10 µM
# HCT-116 [3] = assay: Induction of apoptosis in human HCT-116 cells assessed as necrotic cells at 7.5 uM incubated for 48 hrs by Annexin-V and PI staining based flow cytometry analysis (reference value: 0.06%); format: functional
# MDA-MB-231 [4] = assay: Antiproliferative activity against human MDA-MB-231 cells assessed as inhibition of cell growth at 20 uM incubated for 48 hrs by MTT assay; format: functional
# HCT-116 [5] = assay: Induction of apoptosis in human HCT-116 cells assessed as viable cells at 15 uM incubated for 48 hrs by Annexin-V and PI staining based flow cytometry analysis (reference value: 98.60%); format: functional; settings: read-out: Activity
# HCT-116 [6] = assay: Induction of apoptosis in human HCT-116 cells assessed as early apoptotic cells at 3.75 uM incubated for 48 hrs by Annexin-V and PI staining based flow cytometry analysis (reference value: 1.26%); format: functional
# [7] = biological target: Poly [ADP-ribose] polymerase 1 (Homo sapiens, UniProt P09874); assay: Inhibition of PARP1 (unknown origin) by ELISA
# Sequence of Poly [ADP-ribose] polymerase 1 (P09874 whole entry): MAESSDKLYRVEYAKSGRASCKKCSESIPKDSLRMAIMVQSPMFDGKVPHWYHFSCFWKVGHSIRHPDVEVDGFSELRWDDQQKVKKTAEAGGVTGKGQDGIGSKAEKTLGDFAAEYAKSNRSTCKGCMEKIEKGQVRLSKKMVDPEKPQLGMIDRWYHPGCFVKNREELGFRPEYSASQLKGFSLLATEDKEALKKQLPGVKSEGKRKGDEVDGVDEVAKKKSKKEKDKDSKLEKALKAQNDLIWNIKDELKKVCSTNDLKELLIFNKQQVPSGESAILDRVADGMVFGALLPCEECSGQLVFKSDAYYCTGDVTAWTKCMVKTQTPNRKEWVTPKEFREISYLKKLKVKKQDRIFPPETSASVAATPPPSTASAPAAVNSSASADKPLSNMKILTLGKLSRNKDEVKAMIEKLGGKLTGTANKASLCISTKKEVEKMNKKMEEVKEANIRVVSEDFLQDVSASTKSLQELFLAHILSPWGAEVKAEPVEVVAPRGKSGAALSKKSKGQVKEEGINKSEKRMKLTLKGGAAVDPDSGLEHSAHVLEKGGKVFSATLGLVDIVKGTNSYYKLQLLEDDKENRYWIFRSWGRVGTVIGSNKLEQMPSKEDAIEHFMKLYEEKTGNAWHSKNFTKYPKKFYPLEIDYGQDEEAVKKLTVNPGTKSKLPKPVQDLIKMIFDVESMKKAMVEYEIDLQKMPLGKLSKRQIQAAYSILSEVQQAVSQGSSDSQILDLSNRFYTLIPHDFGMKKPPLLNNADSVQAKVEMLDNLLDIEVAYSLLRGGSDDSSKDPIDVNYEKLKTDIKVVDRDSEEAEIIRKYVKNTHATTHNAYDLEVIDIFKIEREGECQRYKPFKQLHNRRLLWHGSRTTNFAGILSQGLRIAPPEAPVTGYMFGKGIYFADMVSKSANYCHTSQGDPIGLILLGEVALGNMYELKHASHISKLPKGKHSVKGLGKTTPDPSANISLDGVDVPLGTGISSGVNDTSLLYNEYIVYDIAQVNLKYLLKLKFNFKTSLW
# MDA-MB-231 [8] = assay: Antiproliferative activity against human MDA-MB-231 cells assessed as inhibition of cell growth incubated for 48 hrs by MTT assay; format: functional, cell-based; settings: MDA-MB-231, 48 h
# HCT-116 [9] = assay: Potency index, ratio of olaparib IC50 to test compound IC50 for antiproliferative activity against human HCT-116 cells; format: functional
# HCT-116 [10] = assay: Inhibition of colony formation in human HCT-116 cells at 7.5 uM measured every 3 days for 14 days by crystal violet staining based assay; format: functional; settings: HCT-116, 336 h, time 14 day
# HCT-116 [11] = assay: Induction of apoptosis in human HCT-116 cells assessed as necrotic cells at 15 uM incubated for 48 hrs by Annexin-V and PI staining based flow cytometry analysis (reference value: 0.06%); format: functional
# HCT-116 [12] = assay: Induction of apoptosis in human HCT-116 cells assessed as late apoptotic cells at 3.75 uM incubated for 48 hrs by Annexin-V and PI staining based flow cytometry analysis (reference value: 0.06%); format: functional
# HCT-116 [13] = assay: Inhibition of colony formation in human HCT-116 cells at 10 uM measured every 3 days for 14 days by crystal violet staining based assay; format: functional; settings: HCT-116, 336 h, time 14 day
# HCT-116 [14] = assay: Inhibition of cell migration in human HCT-116 cells at 15 uM incubated for 24 hrs by wound healing assay (reference value: 32.0 %); format: functional
# L02 = assay: Antiproliferative activity against human L02 cells assessed as inhibition of cell growth […] incubated for 48 hrs by MTT assay; format: functional, cell-based; settings: L02, 48 h
# HCT-116 [15] = assay: Induction of apoptosis in human HCT-116 cells assessed as late apoptotic cells at 15 uM incubated for 48 hrs by Annexin-V and PI staining based flow cytometry analysis (reference value: 0.06%); format: functional
# HCT-116 [16] = assay: Induction of apoptosis in human HCT-116 cells assessed as viable cells at 7.5 uM incubated for 48 hrs by Annexin-V and PI staining based flow cytometry analysis (reference value: 98.60%); format: functional; settings: read-out: Activity
# HCT-116 [17] = assay: Inhibition of cell migration in human HCT-116 cells at 15 uM incubated for 48 hrs by wound healing assay (reference value: 42.8 %); format: functional
# HeLa [18] = assay: Antiproliferative activity against human HeLa cells assessed as inhibition of cell growth incubated for 48 hrs by MTT assay; format: functional, cell-based
# A549 [19] = assay: Antiproliferative activity against human A549 cells assessed as inhibition of cell growth at 20 uM incubated for 48 hrs by MTT assay; format: functional
# HCT-116 [20] = assay: Induction of apoptosis in human HCT-116 cells assessed as necrotic cells at 3.75 uM incubated for 48 hrs by Annexin-V and PI staining based flow cytometry analysis (reference value: 0.06%); format: functional
# HCT-116 [21] = assay: Induction of apoptosis in human HCT-116 cells assessed as late apoptotic cells at 7.5 uM incubated for 48 hrs by Annexin-V and PI staining based flow cytometry analysis (reference value: 0.06%); format: functional
# A-375 [22] = assay: Antiproliferative activity against human A-375 cells assessed as inhibition of cell growth at 20 uM incubated for 48 hrs by MTT assay; format: functional
# HeLa [23] = assay: Antiproliferative activity against human HeLa cells assessed as inhibition of cell growth at 20 uM incubated for 48 hrs by MTT assay; format: functional
# HCT-116 [24] = assay: Induction of apoptosis in human HCT-116 cells assessed as early apoptotic cells at 7.5 uM incubated for 48 hrs by Annexin-V and PI staining based flow cytometry analysis (reference value: 1.26%); format: functional
# HCT-116 [25] = assay: Induction of cell cycle arrest in human HCT-116 cells assessed as decrease in cells at G0/G1 phase at 7.5 to 10 uM incubated for 48 hrs by propidium iodide staining based flow cytometry analysis (reference value: 66.42 %); format: functional; design: scale not given: the % may be the effect or the level left; settings: dose 7.5-10 µM
# A-375 [26] = assay: Antiproliferative activity against human A-375 cells assessed as inhibition of cell growth incubated for 48 hrs by MTT assay; format: functional, cell-based; settings: A-375, 48 h
# HCT-116 [27] = assay: Inhibition of cell migration in human HCT-116 cells at 7.5 uM incubated for 48 hrs by wound healing assay (reference value: 42.8 %); format: functional
# HCT-116 [28] = assay: Induction of apoptosis in human HCT-116 cells assessed as early apoptotic cells at 15 uM incubated for 48 hrs by Annexin-V and PI staining based flow cytometry analysis (reference value: 1.26%); format: functional
# HCT-116 [29] = assay: Inhibition of colony formation in human HCT-116 cells measured every 3 days for 14 days by crystal violet staining based assay; format: functional, cell-based; settings: dose 1.88-15 µM, time 14.0 day
# HCT-116 [30] = assay: Induction of apoptosis in human HCT-116 cells assessed as viable cells at 3.75 uM incubated for 48 hrs by Annexin-V and PI staining based flow cytometry analysis (reference value: 98.60%); format: functional; settings: read-out: Activity
# A549 [31] = assay: Antiproliferative activity against human A549 cells assessed as inhibition of cell growth incubated for 48 hrs by MTT assay; format: functional, cell-based; settings: A549, 48 h
# HCT-116 [32] = assay: Antiproliferative activity against human HCT-116 cells assessed as inhibition of cell growth at 20 uM incubated for 48 hrs by MTT assay; format: functional
structure (smiles),measurement,setting,value
NC(=O)c1ccccc1NCc1cccc(NC(=O)Nc2cccc(Br)c2)c1,inhibition at 7.5 µM,HCT-116 [1],21%
same,Activity,HCT-116 [2],34.6%
same,Activity,HCT-116 [3],0.1%
same,inhibition at 20 µM,MDA-MB-231 [4],86.8%
same,viability at 15 µM,HCT-116 [5],54.5%
same,Activity,HCT-116 [6],9.81%
same,IC50,[7],0.00517 µM
same,IC50,MDA-MB-231 [8],13.7 µM
same,Ratio IC50,HCT-116 [9],7.87
same,inhibition at 7.5 µM,HCT-116 [10],100%
same,Activity,HCT-116 [11],0.43%
same,Activity,HCT-116 [12],0.29%
same,inhibition at 10 µM,HCT-116 [13],100%
same,inhibition at 15 µM,HCT-116 [14],14.7%
same,IC50,L02,100 µM
same,Activity,HCT-116 [15],2.2%
same,viability at 7.5 µM,HCT-116 [16],86.3%
same,inhibition at 15 µM,HCT-116 [17],24.2%
same,IC50,HeLa [18],14.3 µM
same,inhibition at 20 µM,A549 [19],78.8%
same,Activity,HCT-116 [20],0.1%
same,Activity,HCT-116 [21],0.7%
same,inhibition at 20 µM,A-375 [22],81.8%
same,inhibition at 20 µM,HeLa [23],72.2%
same,Activity,HCT-116 [24],12.93%
same,Activity,HCT-116 [25],55.94%
same,IC50,A-375 [26],15.1 µM
same,inhibition at 7.5 µM,HCT-116 [27],23.3%
same,Activity,HCT-116 [28],42.85%
same,inhibition,HCT-116 [29],Dose-Dependent Effect
same,viability at 3.75 µM,HCT-116 [30],89.8%
same,IC50,A549 [31],12.4 µM
same,inhibition at 20 µM,HCT-116 [32],91%
